Experimental data: US8252543B2, “Method for detecting candidate alzheimer's disease drug” (Tomohiro Chiba, priority 2006, dated 2012)
Entries after “also recorded” stand apart in the source; their conditions may differ. Where no end group is shown, it is not given here.

B1: CNTF: ciliary neurotrophic factor (protein, UniProt P26441 1-200, looked up)
Ciliary neurotrophic factor: MAFTEHSPLTPHRRDLCSRSIWLARKIRSDLTALTESYVKHQGLNKNINLDSADGMPVASTDQWSELTEAERLQENLQAYRTFHVLLARLLEDQQVHFTPTEGDFHQAIHTLLLQVAAFAYQIEELMILLEYKIPRNEADGMPINVGDGGLFEKKLWGLKVLQELSQWTVRSIHDLRFISSHQTGIPARGSHYIANNKKM

How the values were obtained:
[1] = tested on: Tg2576 mice; assay: Elevated-plus maze (EPM) in Tg2576 mice; type: in vivo; details: nasal administration for 3 weeks (every other day)
Method: (§1) Tg2576 mice and wild-type control mice at 15 months of age were tested by Y-maze test (YM) (FIG. 4A, left). […] Mice were then subjected to nasal administration of Colivelin or a vehicle for 3 weeks. Subsequently, mice were again tested by Y-maze test. […] However, Colivelin administration seemed to ameliorate tendencies observed in Tg2576 to which the vehicle had been administered, such as delay in transfer latency, shortened 1 stay, and prolonged time spent in open arm (difficult to fear).
(§2) Y-maze test (YM) was performed as described in the document (Yamada M et al., Behav Brain Res (2005) 164: 139-146). The apparatus for YM is composed of three grey plastic arms (40 cm long, 12 cm high, 3 cm wide at the bottom, and 10 cm wide at the top). Mice were each allowed to explore the maze freely under observation for 8 minutes. Spontaneous alternation behavior % (SA %) is an indication of spatial working memory and is calculated using a ratio of the arm choices differing from the previous two choices to total choices during the run. […] The time between the onset of exploration and entering to the alcove (Entering latency), initiation of drinking from the water tube (Drinking latency), and the number of grid-line crossing during the test were measured Elevated-plus maze (EPM) was performed as described in the document (Kawasumi M et al., Eur J Neurosci (2004) 19: 2826-2838). […]

[2] = tested on: STAT3; assay: Anti-phospho-STAT3 staining of hippocampus of Tg2576 and wild-type mice after Colivelin administration; type: in vivo; details: for STAT3 phosphorylation in Tg2576 hippocampus (anti-phospho-STAT3 staining): Tg2576 mice after 3 weeks nasal administration
Method: The brain sections of Tg2576 mice to which Colivelin had been administered were collected, paraffin-embedded samples were prepared therefrom, and then anti-phospho-STAT3 staining was performed. FIGS. 5A and 5B denote wild-type mice to which a vehicle had been administered; FIGS. 5C and 5D denote wild-type mice to which Colivelin had been administered; FIGS. 5E and 5F denote Tg2576 to which the vehicle had been administered; and FIGS. 5G and 5H denote the hippocampus of Tg2576 to which Colivelin had been administered.
Immunohistochemical analysis was performed as described in the document (Yamada M et al., Behav Brain Res (2005) 164: 139-146; Chiba T et al., J Neurosci (2005) 25: 10252-10261). Mice were transcardially perfused with phosphate buffered saline (PBS) and then perfused with 4% paraformaldehyde (PFA). Paraffine-embedded sections or fresh frozen sections, each having a thickness of 10 μm, were prepared. Immunohistochemical detection was performed with anti-phospho-STAT3 antibody (1:100 dilution). Staining images were visualized with the ABC method (Vectastain Elite Kit, Vector, Calif. U.S.A.) or Tyramide signal enhancer kit (Perkin-Elmer).
We confirmed STAT3 activation in the brains of mice to which Colivelin had been nasally administered twice every 24 hours (FIGS. 3A-D). […] We also confirmed STAT3 phosphorylation in an in vitro experiment using PC12 cells. […] To confirm the therapeutic effect of STAT3 activation, an experiment (nasal administration of Colivelin to mice) was conducted for Tg2576 mice, which had been tested by Y-maze test (YM) and confirmed to have memory disorder at 15 months of age (FIG. 4A, left panel). After 3 weeks of administration (administered every other day), their cognitive functions were analyzed by YM, water-finding task (WFT), and elevated-plus maze (EPM). […] We performed phospho-STAT3 immunostaining using the brains of these mice (FIG. 5). We observed significant loss of phospho-STAT3 immunoreactivity in the control Tg2576 mice to which the vehicle had been administered, compared with the wild-type mice.

[3] = tested on: STAT3; details: reported in Hashimoto 2005, Chiba 2005; cited from earlier work
[4] = tested on: Tg2576 mice; assay: Y-maze test (YM) in Tg2576 mice; type: in vivo; details: Tg2576 mice 15 months of age, nasal administration for 3 weeks (every other day)
Method: as §1, §2

[5] = tested on: Tg2576 mice; assay: Water-finding task (WFT) in Tg2576 mice; type: in vivo; details: nasal administration for 3 weeks (every other day)
Method: as §1, §2

[6] = tested on: STAT3; assay: STAT3 phosphorylation in mouse brain after transnasal Colivelin (anti-phospho-STAT3 immunohistochemistry); type: in vivo; details: mice, transnasal twice at 24 hours-intervals, brain collected 30 minutes after final administration, vs vehicle
Method: (§3) To examine the ability of Colivelin to phosphorylate STAT3 in vivo, a solvent (FIGS. 3A and 3C) or Colivelin (FIGS. 3B and 3D) was administered transnasally to mice twice at 24 hours-intervals. Brain samples were collected 30 minutes after the final administration, and then fresh frozen sections were prepared therefrom. The sections were then stained with an anti-phospho-STAT3 antibody. […] To examine the effect of Colivelin to phosphorylate STAT3 in vitro, PC12 cells were treated with a vehicle (MQ), CNTF, IL-6, Humanin (HN), D-Ser14-HN (D-14), and Colivelin (Col) for […] for stimulation. Phosphorylated STAT3 and total STAT3 were detected by an immunoblot method (FIG. 3E).
Immunohistochemical analysis was performed as described in the document (Yamada M et al., Behav Brain Res (2005) 164: 139-146; Chiba T et al., J Neurosci (2005) 25: 10252-10261). Mice were transcardially perfused with phosphate buffered saline (PBS) and then perfused with 4% paraformaldehyde (PFA). Paraffine-embedded sections or fresh frozen sections, each having a thickness of 10 μm, were prepared. […]
We confirmed STAT3 activation in the brains of mice to which Colivelin had been nasally administered twice every 24 hours (FIGS. 3A-D). […] After 3 weeks of administration (administered every other day), their cognitive functions were analyzed by YM, water-finding task (WFT), and elevated-plus maze (EPM). […]

[7] = tested on: STAT3; assay: STAT3 phosphorylation in PC12 cells (immunoblot); type: cell-based; details: CNTF 50 ng/ml, IL-6 50 ng/ml, Colivelin 100 pM
Method: as §3
PC12 cells were cultured in DNEM (Wako) containing 10% serum (10%-DMEM). For phosphorylation analysis, PC12 cells (cultured at 1.6×10^5 cells/well in a 6-well plate containing serum-free DMEM for 24 hours) were stimulated with a ciliary neurotrophic factor (CNTF, 50 ng/ml), interleukin-6 (IL-6, 50 ng/ml), HN ([…], D-Ser14-HN (D-14, 10 μM, and Colivelin (100 pM) for 15 minutes. Cells were rinsed once with PBS and then lysed in a buffer solution containing phosphatase inhibitors (50 mM Tris HCl [pH7.4], 150 mM NaCl, 1% Triton-X 100, protease inhibitors, 1 mM EDTA, and phosphatase inhibitor cocktails 1 and 2 [Sigma]). Collected samples were separated by normal SDS-PAGE and were then electrically blotted onto PVDF membranes. Detection was performed using an anti-phospho-STAT3 (1:500 dilution) antibody and horseradish peroxidase (HRP)-labeled anti-rabbit IgG antibody (BioRad Laboratories, Hercules, Calif., U.S.A.). Immunoreactive bands were visualized using ECL Western Blotting Detection Reagents (Amersham Bioscience, Uppsala, Sweden). Immunoreactive bands corresponding to total-STAT3 antibody (1:3000 dilution) were subjected to detection on the identical membrane stripped and then determined to be controls.

Molecule	EPM (transfer latency, 1st stay, time spent in open arms) [1]	STAT3 phosphorylation in Tg2576 hippocampus (anti-phospho-STAT3 staining) [2]	STAT3 phosphorylation in Tg2576 hippocampus (anti-phospho-STAT3 staining) ([2]; listed as Coliverlin)	STAT3 phosphorylation levels in wild-type hippocampus (anti-phospho-STAT3 staining) ([2]; wild-type mice after Colivelin administration)	In vitro STAT3 activation / suppression of cell death [3]	Spontaneous alternation behavior % (SA %), spatial working memory [4]	WFT indices of memory including drinking latency, entering latency, and crossing [5]	STAT3 phosphorylation in cerebral cortex (anti-phospho-STAT3 staining) [6]	STAT3 phosphorylation in hippocampus (anti-phospho-STAT3 staining) [6]	STAT3 phosphorylation (phosphorylated STAT3 vs total STAT3, immunoblot) [7]
SALLRSIPAPAGASRLLLLTGEIDLP [Colivelin]	No significant differences were observed; also recorded: no significant changes were observed	levels close to those in the case of wild-type mice to which the vehicle had been administered	recovery of phospho-STAT3 immunoreactivity	slightly increased	activates in vitro STAT3 so as to suppress cell death	significantly improved; also recorded: improvement in cognitive functions was confirmed	significant amelioration was observed; also recorded: improvement in cognitive functions was confirmed	no significant changes were observed; also recorded: no significant differences were confirmed	Significant STAT3 phosphorylation was observed; also recorded: Hippocampus-predominant STAT3 phosphorylation	STAT3 had been phosphorylated; also recorded: STAT3 is phosphorylated
IL-6: interleukin-6										STAT3 had been phosphorylated; also recorded: STAT3 is phosphorylated
B1										STAT3 had been phosphorylated; also recorded: STAT3 is phosphorylated
